We go through 3 compounds from US20230263725A1, “INTRANASAL ADMINISTRATION OF AN ANTIOXIDANT COMPOUND FOR TREATING CORONAVIRUS INFECTION” (priority 2020, published 2023).

In one data set the test system is SARS-CoV-2. As to the kind of experiment: Oral NAC in mild or moderate COVID-19, open label controlled study NCT04419025. It is filed as in vivo.
In data set [1] the test system is brain glutathione (GSH/Cr). Put plainly: Intranasal NAC, brain glutathione by MEGA PRESS MR Spectroscopy in healthy subjects. The class given is in vivo, humans. As to the method:
In this example, intranasal administration of NAC to healthy humans was studied.
The study consisted of two study periods each involving 3 subjects and was designed to provide rapid proof-of-concept data on the ability of intranasal NAC to increase brain GSH levels. In Study Period 1, three right-handed male subjects, and 58 were evaluated. After informed consent and completion of a medical history questionnaire, each subject participated in multiple MR Spectroscopy sessions. On the first day, each subject was scanned once. A T1-weighted thin slice data set was acquired for subsequent positioning of a MR spectroscopy voxel (5×5×3 cm3) positioned with its posterior edge covering the genu of the corpus callosum, extending anteriorly into the frontal lobes.
GSH levels were determined within the volume of interest using […] double-editing for the cysteinyl β-CH2 residue of GSH. Spectral editing was accomplished by refocusing GSH J-evolution during every other acquisition (ON), using a Gaussian pulse centered at the cysteinyl α-CH resonance of GSH at 4.56 p.p.m. During the alternate acquisitions (OFF), the pulse was applied symmetrically about the water peak. The difference-edited GSH spectrum was generated by subtraction of the OFF and ON spectra. Data analysis was accomplished using the GANNET software package which provided information on the GSH/Cr ratio. The Day 1 scan served as an initial baseline.
On Day 2, another baseline evaluation was performed, along with two additional scans at 1-hour and 2-hours post administration of intranasal NAC. The timing of Day 2 scans was shifted relative to Day 1, such that the time-of-day for the Day 1 baseline scan matched the time-of-day of the Day 2, 1-hour post NAC scan. This is illustrated in FIG. 2 and was done to provide control for potential circadian rhythm effects in GSH levels. In FIG. 2, green bars show times of spectroscopic imaging. The time-of-day for the baseline MRS scan on Day 1 matches the time-of-day for the 1-hour post-NAC scan on Day 2.
Solution was delivered as six alternating bursts of 0.33 ml to each nostril over the course of 5-10 minutes.
In Study Period 2, three additional right-handed male subjects, and 31 were studied. MRS data were collected on a single day, with baseline, 1 hr, 2 hrs, and 4 hrs post-NAC evaluations (as illustrated in FIG. 5). The same spectroscopic methods as used in period 1 were employed. However, a multi-dose pump intranasal delivery device was used.

Data set [2] concerns A/H1N1 Singapore 6/86 influenza virus. The note with it: oral NAC over 6 months; control 79%; cited from earlier work.
Another data set has as its system GSH levels in the brain. The note with it: NAC delivered intranasally and orally; cited from earlier work.
The conditions of data set [3]: cited from earlier work; for F total meas (total bioavailability experimentally determined): naltrexone 4 mg.
Data set [4] is described as follows: Safety and tolerability of intranasal NAC in healthy subjects.
For data set [5] the following is noted: intranasal, with versus without DDM.
Setting [6] is: study period 1, intranasal 20% MUCOMYST, 1 ml per nostril, mucosal atomization device, subject (male).
Where [7] appears, read: study period 2, intranasal, multi-dose pump, (male).
Where [8] appears, read: intranasal + DDM, sumatriptan 10 mg.
[9] abbreviates: intranasal, without DDM, sumatriptan 20 mg.

Values joined by “and” are separate entries in the source; they are usually repeats but may differ in a detail not shown here. Identical values can stand only once. Like-named read-outs stand apart in the source and are kept apart here.

Turning to `CC(=O)N[C@@H](CS)C(=O)O` [NAC, N-acetyl cysteine], in the data set with SARS-CoV-2 (hospitalized group, oral NAC), the “fewer days in the hospital versus no NAC” value is 1 days. For the same compound, the hospitalization days with SARS-CoV-2 (hospitalized group, oral NAC 25 mg/kg every 4 hours, 6 days without NAC) was 5 days. In addition, the deaths result in the data set with SARS-CoV-2 (hospitalized group, oral NAC, group without NAC had 2-3 deaths) is “no deaths”. Besides, in the data set with SARS-CoV-2 (outpatients), the “increase in hospitalization needed for those who did not receive oral NAC” value is on record as ~5 x. For the same compound, the outpatients needing hospitalization in the data set with SARS-CoV-2 (outpatients, mild cases, oral NAC 2400 mg then 1200 mg 2x/day for 2 weeks, 15% without NAC) is 3-4%. The “time of peak levels” value in data set [1] (all subjects, FIG. 8) was 1 to 2 h. The “effect on brain GSH as measured by MR spectroscopy” value in data set [1] (intranasal NAC) is listed as “statistically significant increase”. Further, the “brain GSH levels above baseline at 4 hours” value in data set [1] (intranasal NAC, 4 hours, FIG. 8) is on record as ~ 35%. For the same compound, the “increase in brain GSH levels (average percent change in GSH/Cr)” value in data set [1] (intranasal NAC, combined across all subjects, FIG. 8) is listed as > 50%. The “time for which the increase in brain GSH/Cr level is sustained post-administration” value in data set [1] (study period 1) is “at least 2 hours”. In data set [1] (setting [6]), the “Day 2, 1-hour post-NAC GSH/Cr” value was 0.059 and 0.037 and 0.031; the “Day 2, 2-hours post-NAC GSH/Cr” value is 0.052 and 0.035 and 0.048. Also, in data set [1] (study period 2), the “time for which increased brain GSH/Cr levels are maintained” value is given as “at least 4 hrs”. Moreover, in data set [1] (setting [7]), the “1-hr post-NAC GSH/Cr” value is 0.034 and 0.053 and 0.050; the “2-hours post-NAC GSH/Cr” value was 0.039 and 0.042 and 0.045; the “4 hrs-hours post-NAC GSH/Cr” value is 0.036 and 0.041 and 0.042. Also, the “developed a symptomatic form of the A/H1N1 Singapore 6/86 influenza virus” value in data set [2] is 25%. Also, the “effect on GSH levels in the brain” value with GSH levels in the brain is “increase in GSH levels in the brain”. Moreover, in data set [3] (oral dosing), the “bioavailability of oral NAC” value was 10% and 9-10%. Further, in data set [4] (intranasal NAC), the “changes in heart-rate, breathing rate, O2 saturation or blood pressure” value is “No significant changes”; the “duration of transient nausea” value is < 5 min; the “subjects voicing complaints about the NAC odor” value is reported as 5 of 6. For the same compound, in data set [4] (intranasal NAC, 6 subjects), the adverse events entry was “no adverse events were reported” and the “subjects reporting very mild transient nausea” value amounted to 2. Further, the “complaints of NAC fluid into the throat” value in data set [4] (mucosal atomizer, study period 1) is recorded as “all three subjects complained”. For the same compound, the “complaints of NAC fluid into the throat” value in data set [4] (multi-dose pump, study period 2) is recorded as “not found”.

Consider `O=C1CC[C@@]2(O)[C@H]3Cc4ccc(O)c5c4[C@@]2(CCN3CC2CC2)[C@H]1O5` [Naltrexone], for which the entries for the “F total meas (total bioavailability experimentally determined)” value in data set [3] (setting [8]) and in data set [3] (setting [9]) were 95% and 65%, respectively.

Consider `CNS(=O)(=O)Cc1ccc2[nH]cc(CCN(C)C)c2c1` [Sumatriptan], for which, in data set [5], the “increase in bioavailability when dosed together with DDM” value worked out at 35%. For the same compound, the “F total meas (total bioavailability experimentally determined)” value in data set [3] (setting [8]) is listed as 69%; in data set [3] (setting [9]), 34%.
